Converted amounts (≈) assume the structure as drawn. The source made the active and inactive calls. No cut-off for these calls is given here.
Key:
[1] = system: Escherichia coli; experiment: Antibacterial activity against Escherichia coli DH52 after 24 hrs by two fold serial dilution method; type: functional; conditions: DH52, 24 h
[2] = system: Aspergillus flavus; experiment: Antifungal activity against Aspergillus flavus after 24 hrs by two fold serial dilution method; type: functional
[3] = system: Candida albicans; experiment: Antifungal activity against Candida albicans ATCC 76615 after 24 hrs by two fold serial dilution method; type: functional; conditions: ATCC 76615, 24 h
[4] = system: Staphylococcus aureus; experiment: Antibacterial activity against methicillin-resistant Staphylococcus aureus N315 after 24 hrs by two fold serial dilution method; type: functional; conditions: N315, 24 h
[5] = system: Bacillus spizizenii; experiment: Antibacterial activity against Bacillus subtilis ATCC 6633 after 24 hrs by two fold serial dilution method; type: functional; conditions: ATCC 6633, 24 h
[6] = system: Staphylococcus aureus; experiment: Antibacterial activity against Staphylococcus aureus ATCC 25923 after 24 hrs by two fold serial dilution method; type: functional; conditions: ATCC 25923, 24 h
[7] = Antifungal activity against Candida utilis after 24 hrs by two fold serial dilution method; type: functional; conditions: Cyberlindnera jadinii
[8] = system: Shigella dysenteriae; experiment: Antibacterial activity against Shigella dysenteriae after 24 hrs by two fold serial dilution method; type: functional
[9] = system: Salmonella typhi; experiment: Antibacterial activity against Bacillus typhi after 24 hrs by two fold serial dilution method; type: functional, Salmonella enterica subsp. enterica serovar Typhi; conditions: Salmonella enterica
[10] = system: Proteus vulgaris; experiment: Antibacterial activity against Bacillus proteus ATCC 13315 after 24 hrs by two fold serial dilution method; type: functional; conditions: ATCC 13315, 24 h
[11] = system: Pseudomonas aeruginosa; experiment: Antibacterial activity against Pseudomonas aeruginosa ATCC 27853 after 24 hrs by two fold serial dilution method; type: functional; conditions: ATCC 27853, 24 h
[12] = system: Escherichia coli; experiment: Antibacterial activity against Escherichia coli JM109 after 24 hrs by two fold serial dilution method; type: functional; conditions: JM109, 24 h
[13] = Antifungal activity against Candida mycoderma after 24 hrs by two fold serial dilution method; type: functional; conditions: Pichia norvegensis
[14] = system: Saccharomyces cerevisiae; experiment: Antifungal activity against Beer yeast after 24 hrs by two fold serial dilution method; type: functional
[15] = system: Micrococcus luteus; experiment: Antibacterial activity against Micrococcus luteus ATCC 4698 after 24 hrs by two fold serial dilution method; type: functional; conditions: NCTC 2665, 24 h
[16] = species on record: Bos taurus; experiment: Binding affinity to calf thymus DNA assessed as hypochromism up to 9 x 10^-5mol/L by UV-Visible spectroscopic method
[17] = system: Staphylococcus aureus; experiment: Bactericidal activity against methicillin-resistant Staphylococcus aureus N315 assessed as log reduction in bacterial count at 4 times MIC up to 1 hr by time-kill kinetic assay; type: functional
[18] = system: Salmonella typhi; experiment: Induction of membrane permeabilization in Bacillus typhi at 12 times MIC measured for 2 hrs by propidium iodide staining based fluorescence assay; type: functional; conditions: Salmonella enterica subsp. enterica serovar Typhi
[19] = system: Salmonella typhi; experiment: Potency index, ratio of chloromycin MIC to compound MIC for Bacillus typhi; type: functional, Salmonella enterica subsp. enterica serovar Typhi
[20] = system: Salmonella typhi; experiment: Potency index, ratio of norfloxacin MIC to compound MIC for Bacillus typhi; type: functional, Salmonella enterica subsp. enterica serovar Typhi
[21] = system: Staphylococcus aureus; experiment: Induction of membrane permeabilization in methicillin-resistant Staphylococcus aureus N315 at 12 times MIC measured for 2 hrs by propidium iodide staining based fluorescence assay; type: functional
[22] = species on record: Bos taurus; experiment: Binding affinity to calf thymus DNA by UV-Visible spectroscopic method
[23] = Cytotoxicity against mouse L929 cells assessed as reduction in cell viability after 48 hrs by MTT assay; type: toxicity
[24] = system: Aspergillus flavus; experiment: Potency index, ratio of fluconazole MIC80 to compound MIC80 for Aspergillus flavus; type: functional
[25] = species on record: Bos taurus; experiment: Binding affinity to calf thymus DNA assessed as DNA intercalation up to 1.75 x 10^-5mol/L by neutral red dye based UV-Visible spectroscopic method
[26] = system: Staphylococcus aureus; experiment: Antibacterial activity against methicillin-resistant Staphylococcus aureus N315 after 15 days by serial passage resistance development assay; type: functional

| SMILES | MIC [1] [µg/mL] | MIC80 [2] [µg/mL] | MIC80 [3] [µg/mL] | MIC [4] [µg/mL] | MIC [5] [µg/mL] | MIC [6] [µg/mL] | MIC80 [7] [µg/mL] | MIC [8] [µg/mL] | MIC [9] [µg/mL] | MIC [10] [µg/mL] | MIC [11] [µg/mL] | MIC [12] [µg/mL] | MIC80 [13] [µg/mL] | MIC80 [14] [µg/mL] | MIC [15] [µg/mL] | further results |
| --- | --- | --- | --- | --- | --- | --- | --- | --- | --- | --- | --- | --- | --- | --- | --- | --- |
| Nc1ncc(-c2cn(Cc3cccc(Cl)c3)c3c(F)cc(F)cc3c2=O)s1 | 32 (≈ 79.2 µM) | 64 (≈ 158 µM) | 128 (≈ 317 µM) | 128 (≈ 317 µM) | 256 (≈ 634 µM) | 64 (≈ 158 µM) | 256 (≈ 634 µM) | 128 (≈ 317 µM) | 32 (≈ 79.2 µM) | 256 (≈ 634 µM) | 64 (≈ 158 µM) | 256 (≈ 634 µM) | 64 (≈ 158 µM) | 64 (≈ 158 µM) | 128 (≈ 317 µM) |  |
| CCn1cc(C(=O)O)c(=O)c2cc(F)c(N3CCNCC3)cc21 [NORFLOXACIN] | 1 (≈ 3.13 µM) |  |  | 8 (≈ 25.1 µM) | 4 (≈ 12.5 µM) | 2 (≈ 6.26 µM) |  | 16 (≈ 50.1 µM) | 4 (≈ 12.5 µM) | 8 (≈ 25.1 µM) | 16 (≈ 50.1 µM) | 1 (≈ 3.13 µM) |  |  | 2 (≈ 6.26 µM) |  |
| CCCCCCCCCCn1cc(-c2cnc(N)s2)c(=O)c2cc(F)cc(F)c21 | 64 (≈ 153 µM) | 64 (≈ 153 µM) | 64 (≈ 153 µM) | 256 (≈ 610 µM) | 256 (≈ 610 µM) | 512 (≈ 1220 µM) | 128 (≈ 305 µM) | 64 (≈ 153 µM) | 256 (≈ 610 µM) | 128 (≈ 305 µM) | 64 (≈ 153 µM) | 64 (≈ 153 µM) | 64 (≈ 153 µM) | 64 (≈ 153 µM) | 128 (≈ 305 µM) |  |
| COc1ccc(Cn2cc(-c3cnc(N)s3)c(=O)c3cc(F)cc(F)c32)cc1 | 64 (≈ 160 µM) | 64 (≈ 160 µM) | 256 (≈ 641 µM) | 256 (≈ 641 µM) | 128 (≈ 320 µM) | 256 (≈ 641 µM) | 512 (≈ 1280 µM) | 128 (≈ 320 µM) | 64 (≈ 160 µM) | 256 (≈ 641 µM) | 64 (≈ 160 µM) | 128 (≈ 320 µM) | 256 (≈ 641 µM) | 64 (≈ 160 µM) | 64 (≈ 160 µM) |  |
| Nc1ncc(-c2cn(Cc3cccc(F)c3)c3c(F)cc(F)cc3c2=O)s1 | 128 (≈ 330 µM) | 64 (≈ 165 µM) | 64 (≈ 165 µM) | 32 (≈ 82.6 µM) | 128 (≈ 330 µM) | 64 (≈ 165 µM) | 64 (≈ 165 µM) | 64 (≈ 165 µM) | 32 (≈ 82.6 µM) | 32 (≈ 82.6 µM) | 64 (≈ 165 µM) | 128 (≈ 330 µM) | 32 (≈ 82.6 µM) | 64 (≈ 165 µM) | 128 (≈ 330 µM) |  |
| OC(Cn1cncn1)(Cn1cncn1)c1ccc(F)cc1F [FLUCONAZOLE] |  | 256 (≈ 836 µM) | 1 (≈ 3.27 µM) |  |  |  | 8 (≈ 26.1 µM) |  |  |  |  |  | 4 (≈ 13.1 µM) | 16 (≈ 52.2 µM) |  |  |
| C#CCn1cc(-c2cnc(N)s2)c(=O)c2cc(F)cc(F)c21 | 16 (≈ 50.4 µM) | 8 (≈ 25.2 µM) | 16 (≈ 50.4 µM) | 8 (≈ 25.2 µM) | 16 (≈ 50.4 µM) | 8 (≈ 25.2 µM) | 32 (≈ 101 µM) | 8 (≈ 25.2 µM) | 1 (≈ 3.15 µM) | 32 (≈ 101 µM) | 16 (≈ 50.4 µM) | 32 (≈ 101 µM) | 8 (≈ 25.2 µM) | 8 (≈ 25.2 µM) | 32 (≈ 101 µM) | Activity [16]: Active; Activity [17]: 3 log10CFU/ml; Activity [18]: Active; Ratio [19]: 32; Ratio [20]: 4; Activity [21]: Active; K [22]: 0.538 ×10⁴ L/mol; IC50 at 48 h [23]: 289 µg/mL (≈ 911 µM); Ratio [24]: 32; Activity [25]: Active; Activity [26]: Active |
| O=C(N[C@H](CO)[C@H](O)c1ccc([N+](=O)[O-])cc1)C(Cl)Cl [CHLORAMPHENICOL] | 32 (≈ 99 µM) |  |  | 16 (≈ 49.5 µM) | 32 (≈ 99 µM) | 16 (≈ 49.5 µM) |  | 16 (≈ 49.5 µM) | 32 (≈ 99 µM) | 32 (≈ 99 µM) | 32 (≈ 99 µM) | 32 (≈ 99 µM) |  |  | 8 (≈ 24.8 µM) |  |

Reference: ChEMBL document CHEMBL3875175, “Multi-targeting exploration of new 2-aminothiazolyl quinolones: Synthesis, antimicrobial evaluation, interaction with DNA, combination with topoisomerase IV and penetrability into cells” (Eur J Med Chem, 2016)
